In article PMC10784468 (Nature Communications, 2024):
Positions of bridges follow the written chain, without caps; N, C: chain ends. Residues, ends and D or L forms follow the SMILES beside them. *: point of attachment. X1 = O=C(O)c1ccc(-c2c3nc(c(-c4ccc(C(=O)O)cc4)c4ccc([nH]4)c(-c4ccc(C(=O)*)cc4)c4nc(c(-c5ccc(C(=O)O)cc5)c5ccc2[nH]5)C=C4)C=C3)cc1; X2 = O=C(O)C/C(=C/C(=O)*)C(=O)O

Tests used:
[1] = tested on: EJ cells; experiment: Intracellular GSH content detection; type: cell-based
Experimental: (§1) Initially, EJ cells (5 × 10^5) were cultured in 6-well plate with a CO2 incubator overnight at 37 °C. […] Next, EJ cells were collected and washed with PBS for 3 times. Afterwards, the cell lysates were collected by centrifugation at 8000 g for 10 min at 4 °C after lysed by freeze-thaw treatment. Finally, the GSH contents were measured with a GSH Assay Kit based on the manufacturer’s instructions.

[2] = tested on: EJ cells; experiment: Intracellular LPO content (MDA kit); type: cell-based
Experimental: as §1, with “the LPO” for “the GSH”, “measured by thiobarbituric acid (TBA) reaction” for “measured”, “a Malondialdehyde (MDA)” for “a GSH”

[3] = tested on: PTGS2; experiment: Tumor PTGS2 content detection; type: in vivo, BALB/c nude mice; settings: EJ tumor tissues, 8 mg/kg i.v., versus PBS, Gi-F and Gi-F-SA
Experimental: EJ tumor tissues were collected under euthanasia at the end of treatment and washed with PBS for 3 times. Afterwards, the immunofluorescence analyses of Prostaglandin-Endoperoxide Synthase 2 (PTGS2) expression were performed with Wuhan Servicebio Technology Co., Ltd.

[4] = Morphology and size by TEM; type: physicochemical; settings: PBS 0.01 M, pH 6.5, 1 h, 40 μM
Experimental: Nano-ZS 3600 (Malvern Instruments, UK) was used to measure the size distribution of the peptide-porphyrin conjugate solutions. The conjugate solutions (40 μM) were incubated at pH 7.4 or pH 6.5 before measurements. An average value was determined by three repeated measurements at 25 °C for each sample. Besides, transmission electron microscopy (TEM, Tecnai G2 20 S-TWIN) was conducted to observe the morphology and diameters of conjugates in aqueous solution, The conjugates (50 μL, 40 μM) were kept in PB solution at pH 7.4 or pH 6.5, which were dropped on copper meshes. After 5 min, unnecessary liquid was removed and the uranyl acetate solution (10 μL) was dropped on this copper mesh to stain the samples for 10 min. Finally, the copper meshes were washed with deionized water, and dried at room temperature for observation.

[5] = tested on: MCF-7/MDR xenograft tumors; experiment: In vivo antitumor evaluation in MCF-7/MDR xenografted model
Text: Female BALB/c nude mice (~8 weeks, 18 g) were subcutaneously inoculated with 5 × 10^6 MCF-7/MDR cells resuspended in Matrigel. […] Individual tumor volume and bodyweight of mouse after different treatment was collected at 2-days intervals for analysis. Mice were killed at 20 days post treatment unless endpoints were exceeded. Moreover, tumors from all groups were harvested under euthanasia and weighed for analysis at the end of treatment.

[6] = tested on: EJ tumor tissues; experiment: Tumor ROS content detection; type: in vivo, BALB/c nude mice; settings: 8 mg/kg i.v., versus PBS, Gi-F and Gi-F-SA
Experimental: EJ tumor tissues were collected under euthanasia at the end of treatment and washed with PBS for 3 times. Next, DCFH-DA fluorescence staining was carried out by Wuhan Servicebio Technology Co., Ltd.

FeTCPP-LKLKLK(SA)GACNWLPLYPCPV (disulfide) [Gi-F-SA, control conjugate decorated with non-sensitive succinic anhydride (SA) moieties]
Relative GSH levels ([1]; pH=7.4, replicate #1): 0.589
Relative GSH levels ([1]; pH=7.4, replicate #2): 0.628
Relative GSH levels ([1]; pH=7.4, replicate #3): 0.53
Relative MDA levels ([2]; pH=7.4, replicate #1): 2.76
Relative MDA levels ([2]; pH=7.4, replicate #2): 2.24
Relative MDA levels ([2]; pH=7.4, replicate #3): 2

CC(C)C[C@H](NC(=O)c1ccc(-c2c3nc(c(-c4ccc(C(=O)O)cc4)c4ccc([nH]4)c(-c4ccc(C(=O)O)cc4)c4nc(c(-c5ccc(C(=O)O)cc5)c5ccc2[nH]5)C=C4)C=C3)cc1)C(=O)N[C@@H](CCCCNC(=O)/C=C(/CC(=O)O)C(=O)O)C(=O)N[C@@H](CC(C)C)C(=O)N[C@@H](CCCCN)C(=O)N[C@@H](CC(C)C)C(=O)N[C@@H](CCCCNC(=O)/C=C(/CC(=O)O)C(=O)O)C(=O)NCC(=O)N[C@@H](C)C(=O)N[C@H]1CSSC[C@@H](C(=O)N2CCC[C@H]2C(=O)N[C@H](C(=O)O)C(C)C)NC(=O)[C@@H]2CCCN2C(=O)[C@H](Cc2ccc(O)cc2)NC(=O)[C@H](CC(C)C)NC(=O)[C@@H]2CCCN2C(=O)[C@H](CC(C)C)NC(=O)[C@H](Cc2c[nH]c3ccccc23)NC(=O)[C@H](CC(N)=O)NC1=O [Gi-F-CAA] (X1-LK(X2)LKLK(X2)GACNWLPLYPCPV-OH; disulfide 9-17; C-terminus assumed)
PTGS2 levels of tumor tissues [3]: elevation
intracellular GSH levels ([1]; EJ cells, pH 6.5, 40 μM, 8 h): substantial reduction of GSH levels
Relative GSH levels ([1]; pH=6.5, replicate #1): 0.188
Relative GSH levels ([1]; pH=6.5, replicate #2): 0.178
Relative GSH levels ([1]; pH=6.5, replicate #3): 0.129
Relative GSH levels ([1]; pH=7.4, replicate #1): 0.657
Relative GSH levels ([1]; pH=7.4, replicate #2): 0.628
Relative GSH levels ([1]; pH=7.4, replicate #3): 0.54
particle size (TEM) [4]: 57 ± 9 nm
Relative MDA levels ([2]; pH=6.5, replicate #1): 4.36
Relative MDA levels ([2]; pH=6.5, replicate #2): 4.44
Relative MDA levels ([2]; pH=6.5, replicate #3): 4.68
Relative MDA levels ([2]; pH=7.4, replicate #1): 1.72
Relative MDA levels ([2]; pH=7.4, replicate #2): 1.84
Relative MDA levels ([2]; pH=7.4, replicate #3): 2.24
mean tumor volume at 20 days post injection ([5]; MCF-7/MDR xenograft, six i.v. injections every 2 days, Gi-F-CAA 8 mg/kg, DOX and CPT 3 mg/kg, n = 6): 623 mm^3
TGI rate ([5]; MCF-7/MDR xenograft, six i.v. injections, Gi-F-CAA 8 mg/kg, DOX and CPT 3 mg/kg, 20 days): 66%
Tumor weight ([5]; mice 1): 0.59 g
Tumor weight ([5]; mice 2): 0.52 g
Tumor weight ([5]; mice 3): 0.51 g
Tumor weight ([5]; mice 4): 0.35 g
Tumor weight ([5]; mice 5): 0.37 g
Tumor weight ([5]; mice 6): 0.54 g
ROS levels of tumor tissues [6]: elevation
